Test results reported in patent US20240000680A1, “MONO-HYDROXY OR DI-HYDROXY DERIVATIVES OF POLYUNSATURATED FATTY ACIDS, PRODUCTION METHOD THEREFOR, AND USE THEREOF” (KOLON INDUSTRIES, INC., priority 2019, published 2024).

Columns and labels:
filaggrin = test: Filaggrin gene expression in human keratinocytes (RT-PCR), Example 12; type: cell-based; conditions: 50 ppm
Description: (§1) Filaggrin, loricrin, and involucrin are known as core proteins constituting the skin barrier. Among them, filaggrin is a protein produced by decomposition of profilagrin, which constitutes keratohyalin granule (KG) present in granule cells of the epidermis, and plays an important role in the skin barrier by aggregating keratin filaments in keratinocytes. Accordingly, it was attempted to identify the skin barrier strengthening effect by identifying he expression of filaggrin and loricrin by the sample.
(§2) Human keratinocytes were cultured in DMEM medium under the same conditions as in Example 9. In order to identify the gene expression related to skin barrier improvement ability, the cultured cells were treated with the SPMs complex composition of the present invention by concentration and cultured, and then RNA was extracted and RT-PCR was performed. The amplified gene was analyzed using the Gel documentation system and Image J program.

loricrin = test: Loricrin gene expression in human keratinocytes (RT-PCR), Example 12; type: cell-based; conditions: 50 ppm
Description: as §1, §2

Substance: hyaluronic acid
- increase in expression of filaggrin (filaggrin): 52.6%
- increase in expression of loricrin (loricrin): 97.7%
